{
  "source": "ChEMBL document CHEMBL5154822",
  "about": "“Novel inhibitors of AChE and Aβ aggregation with neuroprotective properties as lead compounds for the treatment of Alzheimer's disease” (Eur J Med Chem, 2022)",
  "key": {"[1]": {"target": "T1, Acetylcholinesterase (Mus musculus, UniProt P21836)", "T1 sequence (P21836 whole entry)": "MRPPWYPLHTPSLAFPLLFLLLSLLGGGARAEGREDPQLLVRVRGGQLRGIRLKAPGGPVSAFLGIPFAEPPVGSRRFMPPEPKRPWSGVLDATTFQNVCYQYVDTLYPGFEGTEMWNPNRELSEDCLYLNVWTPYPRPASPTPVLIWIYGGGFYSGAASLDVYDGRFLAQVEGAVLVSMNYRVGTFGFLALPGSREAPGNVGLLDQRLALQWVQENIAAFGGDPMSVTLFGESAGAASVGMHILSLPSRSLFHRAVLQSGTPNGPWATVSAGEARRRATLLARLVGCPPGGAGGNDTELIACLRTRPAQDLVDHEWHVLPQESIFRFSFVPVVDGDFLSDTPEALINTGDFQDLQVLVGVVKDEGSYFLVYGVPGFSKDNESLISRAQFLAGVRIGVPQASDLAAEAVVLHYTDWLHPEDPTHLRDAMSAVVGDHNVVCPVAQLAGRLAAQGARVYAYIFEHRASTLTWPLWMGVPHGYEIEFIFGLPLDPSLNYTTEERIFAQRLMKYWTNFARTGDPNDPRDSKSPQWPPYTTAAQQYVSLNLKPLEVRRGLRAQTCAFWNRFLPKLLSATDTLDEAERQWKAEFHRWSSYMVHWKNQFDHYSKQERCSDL", "experiment": "Inhibition of AChE in mouse cerebral cortex using acetylthiocholine iodide as substrate preincubated for 10 mins followed by substrate addition and measured for 180 secs by Ellman's spectrophotometric method", "format": "tissue-based"}, "[2]": {"experiment": "Inhibition of CYP3A4 in human liver microsomes using testosterone as substrate preincubated for 10 mins followed by NADPH addition and measured after 10 mins by LC-MS/MS analysis", "format": "ADME, Microsome"}, "[3]": {"experiment": "Inhibition of CYP3A4 in human liver microsomes using midazolam as substrate preincubated for 10 mins followed by NADPH addition and measured after 10 mins by LC-MS/MS analysis", "format": "ADME, Microsome"}, "[4]": {"target": "Cytochrome P450 2D6 (Homo sapiens, UniProt P10635)", "sequence (P10635 whole entry)": "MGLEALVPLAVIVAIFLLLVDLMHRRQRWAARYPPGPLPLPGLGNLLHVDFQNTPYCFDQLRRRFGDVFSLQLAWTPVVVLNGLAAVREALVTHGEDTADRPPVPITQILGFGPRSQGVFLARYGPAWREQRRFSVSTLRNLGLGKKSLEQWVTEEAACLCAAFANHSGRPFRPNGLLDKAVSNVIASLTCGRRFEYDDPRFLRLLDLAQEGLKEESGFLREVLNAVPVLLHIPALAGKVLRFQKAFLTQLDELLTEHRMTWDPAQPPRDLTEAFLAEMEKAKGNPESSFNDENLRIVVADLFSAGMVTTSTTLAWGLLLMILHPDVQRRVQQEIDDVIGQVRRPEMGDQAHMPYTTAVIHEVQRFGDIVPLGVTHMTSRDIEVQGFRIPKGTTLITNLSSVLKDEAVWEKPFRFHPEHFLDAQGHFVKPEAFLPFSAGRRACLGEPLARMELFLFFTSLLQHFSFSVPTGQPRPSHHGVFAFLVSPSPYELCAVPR", "experiment": "Inhibition of CYP2D6 in human liver microsomes using dextromethorphan as substrate preincubated for 10 mins followed by NADPH addition and measured after 10 mins by LC-MS/MS analysis", "format": "ADME, Microsome"}, "[5]": {"target": "Cytochrome P450 2C9 (Homo sapiens, UniProt P11712)", "sequence (P11712 whole entry)": "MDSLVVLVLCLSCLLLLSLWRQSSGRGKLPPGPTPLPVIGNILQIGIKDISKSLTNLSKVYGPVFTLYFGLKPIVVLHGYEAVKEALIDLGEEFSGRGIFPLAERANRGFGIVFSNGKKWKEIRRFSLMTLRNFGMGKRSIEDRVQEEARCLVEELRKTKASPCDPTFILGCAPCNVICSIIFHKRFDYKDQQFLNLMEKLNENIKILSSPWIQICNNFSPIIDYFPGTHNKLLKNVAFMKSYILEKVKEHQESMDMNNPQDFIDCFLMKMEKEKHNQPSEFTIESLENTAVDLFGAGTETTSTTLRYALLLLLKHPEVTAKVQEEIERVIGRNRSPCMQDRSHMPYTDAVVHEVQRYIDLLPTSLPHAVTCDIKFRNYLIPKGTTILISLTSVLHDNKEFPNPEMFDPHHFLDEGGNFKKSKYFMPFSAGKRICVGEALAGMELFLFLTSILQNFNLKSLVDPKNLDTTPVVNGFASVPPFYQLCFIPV", "experiment": "Inhibition of CYP2C9 in human liver microsomes using diclofenac as substrate preincubated for 10 mins followed by NADPH addition and measured after 10 mins by LC-MS/MS analysis", "format": "ADME, Microsome"}, "[6]": {"test_system": "SH-SY5Y", "experiment": "Neuroprotective activity in human SH-SY5Y differentiated neuronal cells assessed as inhibition of GA-induced cell death by measuring increase in cell viability at 0.5 to 5 uM measured after 24 hrs by MTT assay", "format": "functional, cell-based", "details": "dose 0.5-5 µM"}, "[7]": {"test_system": "SH-SY5Y", "experiment": "Neuroprotective activity in human SH-SY5Y cells assessed as inhibition of okadaic acid-induced mitochondrial dysfunction by measuring increase in red-to-green fluorescence intensity ratio pretreated for 24 hrs followed by okadaic acid addition for 24 hrs by JC-1 dye based fluorescence analysis", "format": "functional, cell-based", "details": "dose 0.5-5 µM, time 48.0 hrs, DDE = dose-dependent effect"}, "[8]": {"test_system": "Mus musculus", "experiment": "In vivo inhibition of AChE in ICR mouse cerebral cortex using acetylthiocholine iodide as substrate at 10 mg/kg, ig measured after 1 hr by microplate reader analysis", "format": "functional, organism-based"}, "[9]": {"test_system": "SH-SY5Y", "experiment": "Antioxidant activity against okadaic acid-induced ROS generation in human SH-SY5Y cells assessed as reduction in DCF fluorescence intensity at 5 uM pretreated for 24 hrs followed by okadaic acid addition for 24 hrs by DCFH-DA dye based fluorescence analysis", "format": "functional, cell-based", "details": "time 48.0 hrs"}, "[10]": {"test_system": "Mus musculus", "experiment": "In vivo inhibition of AChE in ICR mouse hippocampus using acetylthiocholine iodide as substrate at 10 mg/kg, ig measured after 1 hr by microplate reader analysis", "format": "functional, organism-based"}, "[11]": {"test_system": "SH-SY5Y", "experiment": "Neuroprotective activity in human SH-SY5Y differentiated neuronal cells assessed as inhibition of GA-induced axon morphology defects at 0.5 uM by laser confocal microscope", "format": "functional, cell-based"}, "[12]": {"test_system": "SH-SY5Y", "experiment": "Neuroprotective activity in human SH-SY5Y differentiated neuronal cells assessed as inhibition of GA-induced neurite shortening by measuring increase in axon length at 0.5 uM by laser confocal microscope", "format": "functional, cell-based"}, "[13]": {"test_system": "Mus musculus", "experiment": "Antialzheimer activity against scopolamine-induced cognitive deficit ICR mouse model assessed as improvement in memory impairment by measuring reduction in number of errors at 5 mg/kg, ig by step-through passive avoidance test", "format": "functional, organism-based"}, "[14]": {"experiment": "Cytotoxicity against human SH-SY5Y cells assessed as maximum non-cytotoxic concentration by CellTiter-Glo luminescent assay", "format": "toxicity, cell-based", "details": "read-out: MNCC"}},
  "note": "Activity calls are given as the source filed them. No cut-off for these calls is given here.",
  "data": [
    {"smiles": "COc1cc2c(cc1OC)S(=O)(=O)C(CC1(F)CCN(Cc3ccccc3C(F)(F)F)CC1)C2", "note": "(centres undefined)", "values": [
      {"measurement": "IC50", "setting": "[1]", "value": 3010, "unit": "nM"}
    ]},
    {"smiles": "COc1cc2c(cc1OC)S(=O)(=O)C(F)(CC1CCN(Cc3cccc(F)c3)CC1)C2", "note": "(centres undefined)", "values": [
      {"measurement": "IC50", "setting": "[2]", "value": "> 20000", "unit": "nM"},
      {"measurement": "IC50", "setting": "[3]", "value": "> 20000", "unit": "nM"},
      {"measurement": "IC50", "setting": "[4]", "value": "> 20000", "unit": "nM"},
      {"measurement": "IC50", "setting": "[5]", "value": "> 20000", "unit": "nM"}
    ]},
    {"smiles": "COc1ccc(S(=O)(=O)/C(Cl)=C/C2CCN(Cc3ccccc3)CC2)cc1OC", "values": [
      {"measurement": "IC50", "setting": "[1]", "value": 340, "unit": "nM"}
    ]},
    {"smiles": "COc1cc2c(cc1OC)S(=O)(=O)C(CC1CCN(Cc3ccc(F)cc3F)CC1)C2", "note": "(centres undefined)", "values": [
      {"measurement": "IC50", "setting": "[1]", "value": 14.7, "unit": "nM"}
    ]},
    {"smiles": "COc1cc2c(cc1OC)S(=O)(=O)C(CC1(F)CCN(Cc3ccccc3F)CC1)C2", "note": "(centres undefined)", "values": [
      {"measurement": "IC50", "setting": "[1]", "value": 8.5, "unit": "nM"}
    ]},
    {"smiles": "COc1cc2c(cc1OC)S(=O)(=O)C(CC1(F)CCN(Cc3ccccc3Cl)CC1)C2", "note": "(centres undefined)", "values": [
      {"measurement": "IC50", "setting": "[1]", "value": 5.5, "unit": "nM"}
    ]},
    {"smiles": "COc1cc2c(cc1OC)S(=O)(=O)C(CC1CCN(Cc3ccc(F)cc3)CC1)C2", "note": "(centres undefined)", "values": [
      {"measurement": "IC50", "setting": "[1]", "value": 11.3, "unit": "nM"}
    ]},
    {"smiles": "COc1cc2c(cc1OC)C(=O)C(CC1CCN(Cc3ccccc3)CC1)C2", "note": "(centres undefined) [DONEPEZIL]", "values": [
      {"measurement": "Activity", "setting": "[6]", "value": "Active"},
      {"measurement": "Activity", "setting": "[7]", "value": "Dde"},
      {"measurement": "inhibition", "setting": "[8]", "value": "Active"},
      {"measurement": "Activity", "setting": "[9]", "value": "Active"},
      {"measurement": "inhibition", "setting": "[10]", "value": "Active"},
      {"measurement": "Activity", "setting": "[11]", "value": "Active"},
      {"measurement": "Activity", "setting": "[12]", "value": "Active"},
      {"measurement": "Activity", "setting": "[13]", "value": "Active"},
      {"measurement": "MNTC", "setting": "[14]", "value": 100, "unit": "µM"}
    ]}
  ]
}
